Experimental data from ChEMBL document CHEMBL4627303, “Design, synthesis and evaluation of flurbiprofen-clioquinol hybrids as multitarget-directed ligands against Alzheimer's disease” (Bioorg Med Chem, 2020).
Calls of active or inactive are those of the source. No cut-off for these calls is given here.

What was measured:
[1] = Effective permeability of the compound in PBS/EtOH buffer (7:3) at 100 ug/ml after 18 hrs by PAMPA-BBB assay; type: ADME; details: read-out: Peff
[2] = tested on: BV-2; assay: Cytotoxicity against mouse BV2 cells assessed as reduction in cell viability at 0.5 to 10 uM measured after 30 mins by MTT assay; type: cell-based; details: bv-2, 0.5 h
[3] = Antioxidant activity assessed as AAPH-induced radical scavenging activity by measuring trolox equivalents for oxygen radical absorbance capacity measured every minute for 90 mins by ORAC-FL assay; type: functional
[4] = tested on: BV-2; assay: Anti-neuroinflammatory activity in mouse BV2 cells assessed as inhibition of LPS-induced NO production at 0.5 uM preincubated for 30 mins followed by LPS stimulation measured after 24 hrs by Griess reagent based assay relative to control; type: functional
[5] = tested on: BV-2; assay: Anti-neuroinflammatory activity in mouse BV2 cells assessed as inhibition of LPS-induced NO production at 10 uM preincubated for 30 mins followed by LPS stimulation measured after 24 hrs by Griess reagent based assay relative to control; type: functional
[6] = tested on: BV-2; assay: Anti-neuroinflammatory activity in mouse BV2 cells assessed as inhibition of LPS-induced NO production preincubated for 30 mins followed by LPS stimulation measured after 24 hrs by Griess reagent based assay; type: functional, cell-based
[7] = tested on: BV-2; assay: Effect on nitric oxide production in mouse BV2 cells at 0.5 to 10 uM measured after 30 mins by Griess reagent based […]; type: ADME, cell-based; details: bv-2, 0.5 h
[8] = Metal chelating activity assessed as Zn2+-compound complex formation at 37.5 uM measured after 2 hrs in presence of 37.5 uM ZnCl2 by UV-vis spectrophotometric analysis
[9] = target: T1, Amine oxidase [flavin-containing] B (Homo sapiens, UniProt P27338); assay: Inhibition of recombinant human MAOB expressed in baculovirus infected in BTI cells using kynuramine as substrate after 30 mins by fluorescence based assay; type: cell-based
T1 sequence (P27338 whole entry): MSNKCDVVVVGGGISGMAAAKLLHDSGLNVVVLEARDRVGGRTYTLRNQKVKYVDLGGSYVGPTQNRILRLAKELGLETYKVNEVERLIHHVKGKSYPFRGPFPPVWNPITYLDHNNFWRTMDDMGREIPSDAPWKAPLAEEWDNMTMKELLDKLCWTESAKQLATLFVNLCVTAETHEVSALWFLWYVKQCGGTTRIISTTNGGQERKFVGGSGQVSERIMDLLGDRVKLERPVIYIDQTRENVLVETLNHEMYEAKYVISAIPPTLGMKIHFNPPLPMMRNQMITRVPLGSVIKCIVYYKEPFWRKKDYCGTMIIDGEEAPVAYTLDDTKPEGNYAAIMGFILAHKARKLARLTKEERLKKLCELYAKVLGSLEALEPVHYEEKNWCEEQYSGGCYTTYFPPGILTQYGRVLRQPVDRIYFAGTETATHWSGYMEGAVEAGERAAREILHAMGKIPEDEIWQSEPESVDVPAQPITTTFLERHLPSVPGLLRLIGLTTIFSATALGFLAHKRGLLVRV

[10] = target: T1, Amine oxidase [flavin-containing] B; assay: Inhibition of recombinant human MAOB expressed in baculovirus infected in BTI cells at 10 uM using kynuramine as substrate after 30 mins by fluorescence based assay relative to control; details: 0.5 h
[11] = Metal chelating activity assessed as Cu2+-compound complex formation at 37.5 uM measured after 2 hrs in presence of 37.5 uM CuCl2 by UV-Vis spectrophotometric analysis
[12] = Metal chelating activity assessed as Al3+-compound complex formation at 37.5 uM measured after 2 hrs in presence of 37.5 uM AlCl3 by UV-vis spectrophotometric analysis
[13] = tested on: BV-2; assay: Anti-neuroinflammatory activity in mouse BV2 cells assessed as inhibition of LPS-induced NO production at 2.5 uM preincubated for 30 mins followed by LPS stimulation measured after 24 hrs by Griess reagent based assay relative to control; type: functional
[14] = target: T2, Amine oxidase [flavin-containing] A (Homo sapiens, UniProt P21397); assay: Inhibition of recombinant human MAOA expressed in baculovirus infected in BTI cells at 10 uM using kynuramine as substrate after 30 mins by fluorescence based assay relative to control; details: 0.5 h
T2 sequence (P21397 whole entry): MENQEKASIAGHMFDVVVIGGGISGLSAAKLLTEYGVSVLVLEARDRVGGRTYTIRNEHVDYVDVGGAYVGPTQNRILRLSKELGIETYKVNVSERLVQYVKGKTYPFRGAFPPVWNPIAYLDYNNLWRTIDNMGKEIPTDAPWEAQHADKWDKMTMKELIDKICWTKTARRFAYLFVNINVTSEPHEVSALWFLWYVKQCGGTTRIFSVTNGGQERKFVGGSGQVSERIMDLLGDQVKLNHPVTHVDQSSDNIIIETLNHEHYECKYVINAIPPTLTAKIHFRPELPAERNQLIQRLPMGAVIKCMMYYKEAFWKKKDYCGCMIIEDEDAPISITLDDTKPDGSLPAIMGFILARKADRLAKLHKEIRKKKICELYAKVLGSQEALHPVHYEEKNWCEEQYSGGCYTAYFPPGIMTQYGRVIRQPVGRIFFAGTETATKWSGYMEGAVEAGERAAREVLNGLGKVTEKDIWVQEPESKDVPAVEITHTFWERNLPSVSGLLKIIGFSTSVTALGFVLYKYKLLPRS

[15] = Metal chelating activity assessed as compound-Cu2+ complex stoichiometry ratio of 1:1 at 37.5 uM in presence of CuCl2 after 15 mins by UV-visible spectrophotometric analysis
[16] = tested on: PC-12; assay: Neuroprotective activity against H2O2-induced cytotoxicity in rat PC12 cells assessed as cell viability at 1 uM preincubated for 2 hrs followed by H2O2 addition and measured after 24 hrs by MTT assay (reference value: 48.3%); type: functional; details: read-out: Activity
[17] = tested on: PC-12; assay: Neuroprotective activity against H2O2-induced cytotoxicity in rat PC12 cells assessed as cell viability at 10 uM preincubated for 2 hrs followed by H2O2 addition and measured after 24 hrs by MTT assay (reference value: 48.3%); type: functional; details: read-out: Activity
[18] = target: Amyloid-beta precursor protein (Homo sapiens) (UniProt P05067); assay: Disaggregation of self-induced amyloid beta (1 to 42) (unknown origin) preformed fibrils at 25 uM measured after 24 hrs by thioflavin-T fluorescence assay relative to control
Sequence of Amyloid-beta precursor protein (Homo sapiens) (P05067 whole entry): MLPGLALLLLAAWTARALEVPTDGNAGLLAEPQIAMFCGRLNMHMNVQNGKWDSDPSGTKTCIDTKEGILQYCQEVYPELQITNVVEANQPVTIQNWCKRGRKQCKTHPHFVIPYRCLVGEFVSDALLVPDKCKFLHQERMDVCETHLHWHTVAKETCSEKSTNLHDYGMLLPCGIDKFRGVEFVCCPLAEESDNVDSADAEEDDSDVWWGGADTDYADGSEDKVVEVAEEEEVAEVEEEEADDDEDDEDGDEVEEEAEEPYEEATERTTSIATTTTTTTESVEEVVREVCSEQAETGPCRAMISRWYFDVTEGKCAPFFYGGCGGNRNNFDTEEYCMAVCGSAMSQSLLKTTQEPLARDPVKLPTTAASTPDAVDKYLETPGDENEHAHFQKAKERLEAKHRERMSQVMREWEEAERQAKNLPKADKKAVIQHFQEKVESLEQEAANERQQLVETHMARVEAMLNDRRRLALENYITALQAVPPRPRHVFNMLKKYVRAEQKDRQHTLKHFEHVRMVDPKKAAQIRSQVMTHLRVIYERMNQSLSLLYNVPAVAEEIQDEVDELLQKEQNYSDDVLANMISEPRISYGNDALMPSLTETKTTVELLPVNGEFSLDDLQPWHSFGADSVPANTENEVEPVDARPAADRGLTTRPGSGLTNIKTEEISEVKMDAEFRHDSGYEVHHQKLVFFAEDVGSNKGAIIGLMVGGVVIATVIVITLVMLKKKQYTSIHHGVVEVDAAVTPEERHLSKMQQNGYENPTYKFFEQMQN

[19] = tested on: PC-12; assay: Neuroprotective activity against H2O2-induced cytotoxicity in rat PC12 cells assessed as increase in cell viability preincubated for 2 hrs followed by H2O2 addition and measured after 24 hrs by MTT assay; type: functional, cell-based
[20] = tested on: BV-2; assay: Anti-neuroinflammatory activity in mouse BV2 cells assessed as inhibition of LPS-induced TNFalpha production at 2.5 uM preincubated for 30 mins followed by LPS stimulation measured after 24 hrs by ELISA relative to control; type: functional
[21] = tested on: BV-2; assay: Anti-neuroinflammatory activity in mouse BV2 cells assessed as inhibition of LPS-induced TNFalpha production at 10 uM preincubated for 30 mins followed by LPS stimulation measured after 24 hrs by ELISA relative to control; type: functional
[22] = tested on: BV-2; assay: Effect on TNFalpha production in mouse BV2 cells at 10 uM measured after 30 mins by ELISA; type: ADME, cell-based; details: bv-2, 0.5 h
[23] = tested on: BV-2; assay: Anti-neuroinflammatory activity in mouse BV2 cells assessed as inhibition of LPS-induced TNFalpha production preincubated for 30 mins followed by LPS stimulation measured after 24 hrs by ELISA; type: functional, cell-based
[24] = tested on: BV-2; assay: Anti-neuroinflammatory activity in mouse BV2 cells assessed as inhibition of LPS-induced TNFalpha production at 0.5 uM preincubated for 30 mins followed by LPS stimulation measured after 24 hrs by ELISA relative to control; type: functional
[25] = Metal chelating activity assessed as Fe2+-compound complex formation at 37.5 uM measured after 2 hrs in presence of 37.5 uM FeSO4 by UV-vis spectrophotometric analysis
[26] = target: Amyloid-beta precursor protein (Homo sapiens) (UniProt P05067); assay: Inhibition of Cu2+-induced HFIP-pretreated amyloid beta (1 to 42) (unknown origin) aggregation at 25 uM measured after 24 hrs by thioflavin-T fluorescence assay relative to control
[27] = target: Amyloid-beta precursor protein (Homo sapiens) (UniProt P05067); assay: Inhibition of HFIP-pretreated amyloid beta (1 to 42) (unknown origin) self-aggregation at 25 uM after 24 hrs by thioflavin-T fluorescence assay relative to control
[28] = tested on: BV-2; assay: Cytotoxicity against LPS-induced mouse BV2 cells assessed as reduction in cell viability at 0.5 to 10 uM preincubated for 30 mins followed by LPS stimulation and measured after 24 hrs by MTT assay; type: cell-based; details: bv-2, 24 h

SMILES | Papp at 18 h, 100 ug/ml [1] [×10⁻⁶ cm/s] | Activity [2] | Activity [3] [µMequiv/µM] | inhibition at 0.5 µM [4] [%] | inhibition at 10 µM [5] [%] | inhibition [6] | Activity [7] | Activity [8] | inhibition at 10 µM [10] [%] | Activity [11] | Activity [12] | inhibition at 2.5 µM [13] [%] | inhibition at 10 µM [14] [%] | Activity [15] | viability at 1 µM [16] [%] | viability at 10 µM [17] [%] | Activity [18] [%] | Activity [19] | inhibition at 2.5 µM [20] [%] | inhibition at 10 µM [21] [%] | other results
COC(=O)C(C)c1ccc(-c2ccc(NCc3cc(N(C)C)ccc3O)cc2)c(F)c1 (stereo not given) | 5.48 | Non-Toxic | 2.44 | 32.4 | 57.2 | Dose-dependent effect | Non-Toxic | inactive | 52.4 | Active | Active | 46.7 | 26.3 | Active | 70.2 | 81.6 | 91.1 | Dose-dependent effect | 53.1 | 76.5 | IC50 [9]: 10.3 µM; Activity [22]: Non-Toxic; inhibition [23]: Dose-dependent effect; inhibition at 0.5 µM [24]: 35.8%; Activity [25]: inactive; inhibition [26]: 84.3%; inhibition [27]: 96.3%; Activity [28]: Non-Toxic
COC(=O)C(C)c1ccc(-c2ccccc2NCc2cc(N(C)C)ccc2O)c(F)c1 (stereo not given) | 4.09 | Non-Toxic | 1.91 | 26.9 | 52.4 | Dose-dependent effect | Non-Toxic | inactive | 34.6 | Active | Active | 43.4 | 35.4 | Active | 68.6 | 80 | 91.1 | Dose-dependent effect | 49.1 | 68.1 | Activity [22]: Non-Toxic; inhibition [23]: Dose-dependent effect; inhibition at 0.5 µM [24]: 35%; Activity [25]: inactive; inhibition [26]: 87.3%; inhibition [27]: 96.1%; Activity [28]: Non-Toxic
